Data as given in patent US6103709A (priority 1998, dated 2000).

Legend:
[1] = target: T1, nuclear receptor for 1α,25(OH)2 D3 [VDRnuc] (Gallus gallus, UniProt O42392); experiment: Relative Competitive Index (steroid competition) assay, nuclear receptor VDRnuc; format: binding, chick; parameters: key to Nuclear 1α,25-D Receptor (RCI): % relative to 1α,25(OH)2D3 binding (RCI = 100%); settings: for Nuclear 1α,25-D Receptor (RCI): RCI of 1α,25(OH)2 D3 = 100; for Binding to VDRnuc relative to 1α,25(OH)2 D3 (RCI): 1α,25(OH)2 D3 = 100%, FIG. 8: chick intestine mucosa
T1 construct: VDRnuc receptor preparation from chick intestine mucosa; from tissue; host or cells: chick intestinal mucosa
T1 sequence (O42392 1-451): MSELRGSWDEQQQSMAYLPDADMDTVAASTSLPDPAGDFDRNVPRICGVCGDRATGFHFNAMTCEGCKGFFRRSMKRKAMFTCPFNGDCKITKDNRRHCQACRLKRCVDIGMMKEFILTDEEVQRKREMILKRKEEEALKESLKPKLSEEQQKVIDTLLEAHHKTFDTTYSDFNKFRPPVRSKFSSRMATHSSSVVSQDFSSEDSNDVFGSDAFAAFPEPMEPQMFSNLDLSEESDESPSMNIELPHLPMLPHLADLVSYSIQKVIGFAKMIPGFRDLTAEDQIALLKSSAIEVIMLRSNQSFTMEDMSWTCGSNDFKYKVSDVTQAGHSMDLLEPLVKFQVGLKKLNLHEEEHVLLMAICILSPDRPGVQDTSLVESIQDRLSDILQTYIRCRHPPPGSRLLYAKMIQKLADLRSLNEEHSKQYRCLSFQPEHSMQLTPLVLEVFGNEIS
Description: The ability of analogs to mediate genomic responses are directly determined by the ability of the analog in question to bind to the nuclear receptor for 1α,25(OH)2 D3 [VDRnuc ]. This ability is detected by the assay measuring Relative Competitive Index (RCI).
The assay is based upon the principles of a steroid competition assay. A fixed amount of [^3 H]1α,25(OH)2 D3 is mixed with increasing amounts of competitive analogs or the natural hormone, 1α,25(OH)2 D3, and incubated with a VDRnuc receptor preparation from chick intestine mucosa.
Ligand Receptor Competition Assay
This example describes a ligand receptor competitive assay used for determination of an analog's relative ability to bind to VDRnuc expressed as relative competitive index (RCI).
The relative affinity of nonradioactive 1α,25(OH)2 D3 and each analog to compete with [^3 H]1α,25(OH)2 D3 for binding to the VDRnuc of NB4 cells was carried out in vitro. The NB4 cells were collected from a fast growing stage and the cellular VDRnuc of 1α,25(OH)2 D3 were extracted from KTED buffer containing 10 mM Tris-HCl, pH 7.4, 300 mM KCl, 1 mM EDTA and 5 mM DTT. After sonication, the cell extract was further centrifuged at 500× g for 10 min. The supernatant was collected for use in a ligand-receptor binding assay.
In this assay, increasing concentrations (10^-10 to 10^-6 M) of nonradioactive 1α,25(OH)2 D3 or the tested analogs were incubated with NB4 cell extracts in the presence of a fixed saturating amount of 1 pmole of [^3 H]1α,25(OH)2 D3. The reciprocal of the percentage of maximal binding of [^3 H]1α,25(OH)2 D3 was then calculated and plotted as a function of the relative analog concentration versus [^3 H]1α,25(OH)2 D3. […] The competitive index value for each analog is then normalized to the competitive index value of the […], thereby generating the value of Relative Competitive Index (RCI) where the RCI for 1α,25(OH)2 D3 is defined as 100%.
The full description of the assay is found in Methods in Enzymology: Vitamins and Co-Enzymes, Vol. 67, 494-500 , Academic Press, NY(1980); Biochem. Biophys. Res. Commun., 91: 827-834 (1979); and Endocrinology, 139(2): 457-465 (1998).

[2] = target: T2, human vitamin D-binding protein (hDBP) (Homo sapiens, UniProt P02774); experiment: Relative Competitive Index assay, vitamin D-binding protein; settings: for Vit D Binding Protein (RCI): RCI of 1α,25(OH)2 D3 set to 100, 4° C., pH 7.4; for DBP binding (in words): compared with 1α,25(OH)2 D3; for Binding to DBP relative to 1α,25(OH)2 D3 (RCI, FIG. 7): 1α,25(OH)2 D3 = 100%, mean of three determinations
T2 sequence (P02774 17-474): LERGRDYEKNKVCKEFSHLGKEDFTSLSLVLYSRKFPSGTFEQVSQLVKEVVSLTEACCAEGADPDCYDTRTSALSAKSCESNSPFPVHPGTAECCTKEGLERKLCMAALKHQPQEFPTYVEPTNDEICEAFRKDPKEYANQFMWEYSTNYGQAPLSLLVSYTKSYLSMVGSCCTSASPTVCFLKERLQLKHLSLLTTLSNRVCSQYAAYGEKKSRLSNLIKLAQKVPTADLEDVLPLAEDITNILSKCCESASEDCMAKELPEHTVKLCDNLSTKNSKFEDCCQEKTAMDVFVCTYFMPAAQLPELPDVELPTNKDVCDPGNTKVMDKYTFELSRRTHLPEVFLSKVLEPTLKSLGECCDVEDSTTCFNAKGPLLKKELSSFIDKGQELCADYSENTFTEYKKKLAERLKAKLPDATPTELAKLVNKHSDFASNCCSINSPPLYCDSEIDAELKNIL
Source text: The compared analogs are 14α,15α-methano-1α,25(OH)2 D3 (LO), 22(m(dimethylhydroxymethyl)phenyl)-23,24,25,26,27-pentanor-1α- OH-D3 (EV) and (22R)-1,25(OH)2 -22,23,diene-D3 (HR), all conformationally flexible genomic agonists. By definition the RCI for 1α,25(OH)2 D3 is set to 100%. The data seen in FIG. 7 represent the mean of three determinations.
Vitamin D-Binding Protein Assay Relative Competitive Index
This example describes a Relative Competitive Index Assay used for determination of analogs binding affinity to vitamin D-binding protein.
Phase separation was then obtained by the addition of 0.5 ml of cold dextran-coated charcoal.
The data was plotted as [competitor]/[[^3 H]25(OH)D3 ] vs. 1/[fraction bound]. The RCI was calculated as [slope of competitor]/[slopefor 25(OH)D3 ]×100. Results are seen in FIG. 7. Although each analog was assayed in competition with [^3 H]25(OH)D3, the data are expressed as relative to the binding of 1α,25(OH)2 D3, with its RCI set to 100.

Compound | Nuclear 1α,25-D Receptor (RCI) [1] | Vit D Binding Protein (RCI) [2] | DBP binding (in words) [2] | Binding to VDRnuc relative to 1α,25(OH)2 D3 (RCI) [1] | Binding to DBP relative to 1α,25(OH)2 D3 (RCI, FIG. 7) [2] | RCI for DBP, times greater than 1α,25(OH)2 D3 ([2]; relative to reference 1α,25(OH)2 D3) | VDRnuc binding / nuclear response (in words) ([1]; compared with 1α,25(OH)2 D3)
CC1=C(/C=C\C2=CCC[C@@]3(C)[C@@H]2CC[C@@H]3[C@H](C)CCCC(C)(C)O)C[C@@H](O)C[C@@H]1O [GF] | 2 | 2 | lower than 1α,25(OH)2 D3 |  |  |  | 
C=C1CC[C@H](O)C/C1=C/C=C1\CCC[C@]2(C)[C@@H]([C@H](C)Cc3cccc(O)c3)CC[C@@H]12 [JY] | 0.001 | 132,000 |  |  |  |  | 
C=C1/C(=C\C=C2/CCC[C@]3(C)[C@@H]([C@H](C)Cc4cccc(O)c4)CC[C@@H]23)C[C@@H](O)C[C@@H]1O [DE] | 29 | 980 |  | 29% |  |  | 
C[C@H](CCCC(C)(C)O)[C@H]1CC[C@H]2C3=CC=C4C[C@@H](O)C[C@H](O)[C@]4(C)[C@@H]3CC[C@]12C [JP] | 0.3 | -5.0 | lower than 1α,25(OH)2 D3 |  |  |  | 
C=C1/C(=C\C=C2/CCC[C@]3(C)[C@@H]([C@H](C)Cc4cccc(C(C)(C)O)c4)CC[C@@H]23)C[C@@H](O)C[C@@H]1O [EV] | 62 | 25 | lower than 1α,25(OH)2 D3 | 62% | 25% |  | 
CC1=C(C=C=C2CCC[C@]3(C)[C@@H]([C@H](C)CCCC(C)(C)O)CC[C@@H]23)C[C@@H](O)C[C@@H]1O [JW] | 2.6 | 700 |  |  |  |  | 
C=C1/C(=C\C=C2/CCC[C@]3(C)[C@@H]([C@H](C)C=C=CC(C)(C)O)CC[C@@H]23)C[C@@H](O)C[C@@H]1O [HQ] | 21 | 11 | lower than 1α,25(OH)2 D3 |  |  |  | 
C=C1/C(=C\C=C2/CCC[C@]3(C)[C@@H]([C@H](C)C=C=CC(C)(C)O)CC[C@@H]23)C[C@@H](O)C[C@@H]1O [HR] | 52 | 48 | lower than 1α,25(OH)2 D3 | 52% | 48% |  | 
C[C@H](CCCC(C)(C)O)[C@H]1CC[C@H]2C3=CC=C4C[C@@H](O)C[C@H](O)[C@@]4(C)[C@H]3CC[C@]12C [JO] | 0.2 | 2.0 | lower than 1α,25(OH)2 D3 |  |  |  | 
C[C@H](CCCC(C)(C)O)[C@H]1CC[C@H]2C3=CC=C4C[C@@H](O)C[C@H](O)[C@]4(C)[C@H]3CC[C@]12C [JM] | 0.1 | -0.3 | lower than 1α,25(OH)2 D3 |  |  |  | 
CC1=C(C=C=C2CCC[C@]3(C)[C@@H]([C@H](C)CCCC(C)(C)O)CC[C@@H]23)C[C@@H](O)C[C@@H]1O [JV] | 1.6 | 37 | lower than 1α,25(OH)2 D3 |  |  |  | 
C[C@H](CCCC(C)(C)O)[C@H]1CC[C@H]2C3=CC=C4C[C@@H](O)C[C@H](O)[C@@]4(C)[C@@H]3CC[C@]12C [JN] | 1.8 | -0.7 | lower than 1α,25(OH)2 D3 |  |  |  | 
C=C1CC[C@H](O)C/C1=C/C=C1\CCC[C@]2(C)[C@@H]([C@H](C)Cc3ccc(O)cc3)CC[C@@H]12 [JX] | 0.002 | 211,000 | binds very tightly to DBP |  |  | 2110 times | 
C=C1/C(=C\C=C2/CCC[C@]3(C)[C@@H]([C@H](C)Cc4ccc(O)cc4)CC[C@@H]23)C[C@@H](O)C[C@@H]1O [DF] | 5 | 1980 |  | 5% |  |  | 
C=C1/C(=C\C=C2/CCC[C@]3(C)[C@@H]([C@H](C)CCCC(C)(C)O)C[C@@H]4C[C@@]243)C[C@@H](O)C[C@@H]1O [LO] | 98 | 60 | lower than 1α,25(OH)2 D3 | 98% | 60% |  | as active in generating nuclear responses as is the 1α,25(OH)2 D3
